Laboratory results taken from patent US20120010075A1 (priority 2009, published 2012).
Like-named read-outs stand apart in the source and are kept apart here.

Experiments:
Phytophthora infestans = type: in vivo, Phytophthora infestans on tomato; conditions: applied 24 h before inoculation, assessed 7 days after inoculation
[1] = test system: Leptosphaeria nodorum (LEPTNO); test: In vitro fungitoxicity of hydrazones with and without copper towards Leptosphaeria nodorum (Example 26); type: cell-based; conditions: 72 h at 25° C.; for inhibition of growth at 0.05 µg/mL: Parastagonospora nodorum, 72 h, copper-minus medium, read-out: LEPTNO % Inhn. Minus Copper Observed
[2] = hydrazone 50 ppm + 50 μM CuCl2.2H2O, tomato
[3] = compound 0.05 μg/mL, copper-plus medium (CuCl2.2H2O)
[4] = hydrazone 50 ppm with 50 μM CuCl2.2H2O, tomato late blight
[5] = test compound Concn. 0.05 μg/mL
[6] = copper-plus medium (CuCl2 10 μM), test compound Concn. 0.05 μg/mL

SMILES	TLB % Control (Phytophthora infestans; [2]) [%]	inhibition of growth at 0.05 µg/mL ([1]; compound 0.05 μg/mL) [%]	LEPTNO % Inhn. Plus Copper Observed [1, 3] [%]	melting point [°C]	TLB % Control (Phytophthora infestans; [4]) [%]	inhibition of growth at 0.05 µg/mL [1, 5] [%]	LEPTNO % Inhn. Plus Copper Observed [1, 6] [%]
Cc1cc(O)c(/C=N/NC(=O)c2ccccc2)cc1Cl [Example 239]	66.1	0.1	97.8	206 to 208	–	–	–
C/C(=N\NC(=O)c1ccc(C(F)(F)F)cc1)c1ccc(Cl)cc1O [Example 461]	–	–	–	244 to 245	54.0	3.4	96.7
C/C(=N\NC(=O)c1ccc(Cl)cc1)c1cc(Cl)ccc1O [Example 510]	–	–	–	248 to 252	56.0	6.2	95.5
O=C(N/N=C/c1cc(C(F)(F)F)cc(Cl)c1O)c1cccc(F)c1 [Example 323]	–	–	–	210 to 212	100.0	16.1	98.1
C/C(=N\NC(=O)c1ccc(Br)cc1)c1cc(F)cc(F)c1O [Example 580]	–	–	–	268 to 270	97.0	3.1	98.1
C/C(=N\NC(=O)c1ccc(Br)cc1)c1cc(Br)cc(Br)c1O [Example 547]	–	–	–	264 to 266	88.0	10.8	97.7
COc1ccccc1C(=O)N/N=C(\C)c1cc(Cl)cc(Cl)c1O [Example 141]	52.0	1.5	96.2	307 to 310	–	–	–
COc1cccc(C(=O)N/N=C/c2cc(Cl)ccc2O)c1C [Example 133]	71.9	8.8	98.5	122 to 128	–	–	–
Cc1ccc(O)c(C(=O)N/N=C/c2cc(Cl)cc(Cl)c2O)c1 [Example 258]	87.0	34.1	97.4	277 to 280	–	–	–
O=C(N/N=C/c1cc(Cl)cc(Cl)c1O)c1cccc(C(F)(F)F)c1 [Example 249]	100.0	27.8	95.8	165 to 169	–	–	–
O=C(N/N=C/c1c(C(F)(F)F)ccc(Cl)c1O)c1ccc(F)cc1 [Example 450]	–	–	–	231 to 233	100.0	1.1	93.5
COc1ccc(C(=O)N/N=C(\C)c2cc(Br)ccc2O)cc1 [Example 516]	–	–	–	202 to 252	59.0	0	97.9
C/C(=N\NC(=O)c1cccc(Cl)c1)c1cccc(Cl)c1O [Example 497]	–	–	–	197 to 219	75.0	0	98.1
C/C(=N\NC(=O)c1ccccc1Br)c1cccc([N+](=O)[O-])c1O [Example 524]	–	–	–	186 to 188	39.0	9.3	95.8
C/C(=N\NC(=O)c1cccc(C)c1)c1cccc(Cl)c1O [Example 494]	–	–	–	164 to 178	96.0	0	97.7
C/C(=N\NC(=O)c1ccc(C)cc1)c1cc(Br)ccc1O [Example 290]	21.0	0.4	95.5	245 to 248	–	–	–
CCc1ccc(C(=O)N/N=C/c2cc(Cl)cc(Cl)c2O)cc1 [Example 260]	81.0	11.2	97.1	286 to 289	–	–	–

SMILES	TLB % Control (Phytophthora infestans; [2]) [%]	inhibition of growth at 0.05 µg/mL ([1]; compound 0.05 μg/mL) [%]	LEPTNO % Inhn. Plus Copper Observed [1, 3] [%]	melting point [°C]	TLB % Control (Phytophthora infestans; [4]) [%]	inhibition of growth at 0.05 µg/mL [1, 5] [%]	LEPTNO % Inhn. Plus Copper Observed [1, 6] [%]
C/C(=N\NC(=O)c1ccccc1O)c1cccc(Cl)c1O [Example 503]	–	–	–	283 to 287	66.0	5.2	97.0
CC/C(=N\NC(=O)c1ccc(C)cc1C)c1ccccc1O [Example 30]	40.7	0	97.0	159 to 160	–	–	–
Cc1ccc(C(=O)N/N=C/c2cc(C(F)(F)F)ccc2O)c(O)c1 [Example 445]	–	–	–	264 to 271	90.0	13.2	100.0
Cc1ccc(O)c(/C=N/NC(=O)c2ccccc2)c1 [Example 235]	80.0	0	96.3	192 to 193	–	–	–
Cc1ccc(C(=O)N/N=C/c2cc(C(F)(F)F)cc(C(F)(F)F)c2O)cc1 [Example 333]	–	–	–	274 to 277	85.0	16.2	93.2
O=C(N/N=C/c1ccc(Cl)c(Cl)c1O)c1cccc([N+](=O)[O-])c1 [Example 360]	–	–	–	269 to 271	97.0	17.6	96.9
Cc1ccc(C(=O)N/N=C/c2cc(Cl)cc(Br)c2O)cc1 [Example 413]	–	–	–	279 to 282	94.0	18.9	97.9
COc1ccc(/C(C)=N/NC(=O)c2ccccc2Cl)c(O)c1 [Example 284]	74.0	0	97.1	174 to 175	–	–	–
C/C(=N\NC(=O)c1ccccc1O)c1ccc(Cl)cc1O [Example 463]	–	–	–	311 to 312	61.0	5.1	96.3
C/C(=N\NC(=O)c1ccccc1C)c1cc(Br)ccc1O [Example 288]	26.0	1.8	98.2	201 to 203	–	–	–
Cc1ccc(C(=O)N/N=C/c2c(Cl)ccc(Cl)c2O)cc1 [Example 366]	–	–	–	267 to 269	100.0	14.2	96.6
COc1cccc(/C(C)=N/NC(=O)c2ccccc2Br)c1O [Example 467]	–	–	–	245 to 247	80.0	0	95.7
O=C(N/N=C/c1c(C(F)(F)F)ccc(Cl)c1O)c1ccccc1 [Example 319]	–	–	–	216 to 218	78.0	18.1	96.6
C/C(=N\NC(=O)c1cccc(Cl)c1)c1cc(Br)cc(Br)c1O [Example 544]	–	–	–	255 to 256	97.0	6.9	97.6
CNc1ccc(C(=O)N/N=C/c2cc(Cl)cc(Cl)c2O)cc1 [Example 259]	32.0	9.9	97.9	245 to 253	–	–	–
COc1ccc(/C(C)=N/NC(=O)c2ccc(Cl)cc2)c(O)c1OC [Example 557]	–	–	–	230 to 235	90.0	13	95.7
